Calls of active or inactive are those of the source. The rule behind the calls is not given here.
How the values were obtained:
[1] = tested on: Pfeiffer; experiment: In vivo inhibition of PI3Kdelta in human Pfeiffer cells xenografted in SCID mouse assessed as reduction in AKT phosphorylation at Ser473 residue in tumor lysates at 1 mg/kg, po bid for 14 days measured at 4 hrs post last dose by Western blot analysis; assay type: functional, organism-based; settings: Neoplasm, Lysate
[2] = biological target: T1, Phosphatidylinositol 4,5-bisphosphate 3-kinase catalytic subunit delta isoform (Homo sapiens, UniProt O00329); experiment: Inhibition of PI3Kdelta in human Ramos cells assessed as reduction in AKT phosphorylation incubated for 2 hrs by Alexa flour 488 based FACS analysis; assay type: cell-based
T1 sequence (O00329 whole entry): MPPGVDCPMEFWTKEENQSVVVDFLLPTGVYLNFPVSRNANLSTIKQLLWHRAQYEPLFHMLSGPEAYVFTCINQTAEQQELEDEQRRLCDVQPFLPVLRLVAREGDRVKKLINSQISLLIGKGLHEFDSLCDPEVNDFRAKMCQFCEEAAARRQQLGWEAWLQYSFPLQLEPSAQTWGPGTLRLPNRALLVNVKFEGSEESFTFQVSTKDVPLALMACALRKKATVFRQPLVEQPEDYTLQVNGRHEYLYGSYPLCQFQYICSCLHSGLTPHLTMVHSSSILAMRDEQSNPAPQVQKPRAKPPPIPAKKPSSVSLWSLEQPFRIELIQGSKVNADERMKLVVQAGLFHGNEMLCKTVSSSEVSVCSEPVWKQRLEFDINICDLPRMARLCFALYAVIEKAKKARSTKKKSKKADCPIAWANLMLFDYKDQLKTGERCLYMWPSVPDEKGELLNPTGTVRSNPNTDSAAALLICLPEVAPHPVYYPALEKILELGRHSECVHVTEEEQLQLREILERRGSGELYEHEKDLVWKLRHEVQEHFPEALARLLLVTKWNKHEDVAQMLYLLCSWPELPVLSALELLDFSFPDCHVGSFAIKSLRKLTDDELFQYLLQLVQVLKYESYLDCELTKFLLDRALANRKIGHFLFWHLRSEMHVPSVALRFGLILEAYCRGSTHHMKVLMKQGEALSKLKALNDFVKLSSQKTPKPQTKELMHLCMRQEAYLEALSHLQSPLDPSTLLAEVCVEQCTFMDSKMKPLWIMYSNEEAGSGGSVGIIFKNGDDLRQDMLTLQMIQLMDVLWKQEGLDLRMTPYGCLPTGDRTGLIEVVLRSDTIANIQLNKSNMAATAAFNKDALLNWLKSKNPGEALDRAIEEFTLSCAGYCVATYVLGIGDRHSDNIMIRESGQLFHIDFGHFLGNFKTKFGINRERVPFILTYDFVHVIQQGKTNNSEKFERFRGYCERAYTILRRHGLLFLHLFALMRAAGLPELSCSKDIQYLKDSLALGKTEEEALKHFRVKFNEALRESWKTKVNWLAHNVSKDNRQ

[3] = biological target: Cytochrome P450 2C9 (Homo sapiens, UniProt P11712); experiment: Inhibition of CYP2C9 in human liver microsomes at 0.1 to 25 uM using diclofenac as substrate by LC/MS analysis; assay type: ADME
[4] = biological target: Cytochrome P450 2D6 (Homo sapiens, UniProt P10635); experiment: Inhibition of CYP2D6 in human liver microsomes using bufuralol as substrate by LC/MS analysis; assay type: ADME
[5] = Volume of distribution at steady state in Beagle dog at 2 mg/kg, iv measured for 24 hrs by LC-MS/MS analysis; assay type: ADME, organism-based, Canis lupus familiaris; settings: in vivo, read-out: Vdss
[6] = biological target: T2, Cytochrome P450 1A2 (Homo sapiens, UniProt P05177); experiment: Inhibition of CYP1A2 in human liver microsomes at 0.1 to 25 uM using 7-ethoxyresorufin as substrate by LC/MS analysis; assay type: ADME
T2 sequence (P05177 whole entry): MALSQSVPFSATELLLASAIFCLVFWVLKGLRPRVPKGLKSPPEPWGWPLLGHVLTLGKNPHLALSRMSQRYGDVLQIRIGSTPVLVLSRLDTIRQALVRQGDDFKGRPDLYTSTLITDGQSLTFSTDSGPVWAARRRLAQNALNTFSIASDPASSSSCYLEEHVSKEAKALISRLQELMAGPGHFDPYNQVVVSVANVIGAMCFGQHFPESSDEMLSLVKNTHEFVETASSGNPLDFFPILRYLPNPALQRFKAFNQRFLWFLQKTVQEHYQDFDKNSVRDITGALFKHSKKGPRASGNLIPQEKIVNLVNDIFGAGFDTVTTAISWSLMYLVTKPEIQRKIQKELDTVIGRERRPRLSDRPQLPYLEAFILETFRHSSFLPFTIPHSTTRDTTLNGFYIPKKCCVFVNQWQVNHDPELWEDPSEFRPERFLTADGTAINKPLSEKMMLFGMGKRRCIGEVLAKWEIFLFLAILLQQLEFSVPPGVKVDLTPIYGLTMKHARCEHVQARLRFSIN

[7] = Hepatotoxicity in Beagle dog measured on day 28; assay type: toxicity, Canis lupus familiaris; settings: in vivo
[8] = biological target: T1, Phosphatidylinositol 4,5-bisphosphate 3-kinase catalytic subunit delta isoform; experiment: Inhibition of PI3Kdelta in human whole blood assessed as reduction in anti-IgE antibody-induced CD63 expression by flow cast kit method; assay type: tissue-based
[9] = Tmax in cynomolgus monkey at 4 mg/kg, po measured for 24 hrs by LC-MS/MS analysis; assay type: ADME, organism-based, Macaca fascicularis; settings: in vivo
[10] = tested on: Pfeiffer; experiment: Antitumor activity against human Pfeiffer cells xenografted in SCID mouse assessed as reduction in tumor growth at 1 mg/kg, po bid for 14 days measured 2-3 times weekly by digital caliper method; assay type: functional, organism-based
[11] = tested on: Pfeiffer; experiment: Cytotoxicity against human Pfeiffer cells assessed as reduction in cell viability incubated for 4 days by [3H]-thymidine incorporation based liquid scintillation counter method; assay type: functional
[12] = Tmax in rat at 4 mg/kg, po measured for 24 hrs by LC-MS/MS analysis; assay type: ADME, organism-based; settings: in vivo
[13] = biological target: Cytochrome P450 3A4 (Homo sapiens, UniProt P08684); experiment: Inhibition of CYP3A4 in human liver microsomes at 0.1 to 25 uM using testosterone as substrate by LC/MS analysis; assay type: ADME
[14] = biological target: Phosphatidylinositol 4,5-bisphosphate 3-kinase catalytic subunit alpha isoform (Homo sapiens, UniProt P42336); experiment: Inhibition of PI3Kalpha (unknown origin) using D-myophosphatidylinositol 4,5-bisphosphate as substrate incubated for 120 mins by [gamma-33P]-ATP based scintillation counting method
[15] = Clearance in rat at 4 mg/kg, iv measured for 24 hrs by LC-MS/MS analysis; assay type: ADME, organism-based; settings: in vivo
[16] = biological target: Voltage-gated inwardly rectifying potassium channel KCNH2 (Homo sapiens, UniProt Q12809); experiment: Inhibition of human ERG expressed in HEK293 cells by voltage patch clamp assay; assay type: cell-based
[17] = Clearance in Beagle dog at 2 mg/kg, iv measured for 24 hrs by LC-MS/MS analysis; assay type: ADME, organism-based, Canis lupus familiaris; settings: in vivo
[18] = biological target: Phosphatidylinositol 4,5-bisphosphate 3-kinase catalytic subunit beta isoform (Homo sapiens, UniProt P42338); experiment: Inhibition of PI3Kbeta (unknown origin) using D-myophosphatidylinositol 4,5-bisphosphate as substrate incubated for 120 mins by [gamma-33P]-ATP based scintillation counting method
[19] = Oral bioavailability in cynomolgus monkey at 4 mg/kg measured for 24 hrs by LC-MS/MS analysis; assay type: ADME, organism-based, Macaca fascicularis; settings: in vivo

Sequence of Cytochrome P450 2D6 (P10635 whole entry): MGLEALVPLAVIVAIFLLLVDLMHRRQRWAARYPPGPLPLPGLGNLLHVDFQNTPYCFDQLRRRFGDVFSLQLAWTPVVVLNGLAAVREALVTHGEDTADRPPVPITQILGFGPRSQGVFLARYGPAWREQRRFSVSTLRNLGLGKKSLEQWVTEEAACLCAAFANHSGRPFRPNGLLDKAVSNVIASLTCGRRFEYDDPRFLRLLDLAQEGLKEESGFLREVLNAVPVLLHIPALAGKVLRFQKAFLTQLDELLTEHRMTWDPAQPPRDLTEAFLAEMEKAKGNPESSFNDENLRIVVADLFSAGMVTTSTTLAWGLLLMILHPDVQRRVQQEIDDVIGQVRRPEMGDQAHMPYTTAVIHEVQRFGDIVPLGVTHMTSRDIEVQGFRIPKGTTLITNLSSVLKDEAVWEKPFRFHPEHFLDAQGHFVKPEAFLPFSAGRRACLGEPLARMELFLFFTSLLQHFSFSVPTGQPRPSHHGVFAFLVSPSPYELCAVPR
Sequence of Phosphatidylinositol 4,5-bisphosphate 3-kinase catalytic subunit alpha isoform (P42336 whole entry, canonical isoform): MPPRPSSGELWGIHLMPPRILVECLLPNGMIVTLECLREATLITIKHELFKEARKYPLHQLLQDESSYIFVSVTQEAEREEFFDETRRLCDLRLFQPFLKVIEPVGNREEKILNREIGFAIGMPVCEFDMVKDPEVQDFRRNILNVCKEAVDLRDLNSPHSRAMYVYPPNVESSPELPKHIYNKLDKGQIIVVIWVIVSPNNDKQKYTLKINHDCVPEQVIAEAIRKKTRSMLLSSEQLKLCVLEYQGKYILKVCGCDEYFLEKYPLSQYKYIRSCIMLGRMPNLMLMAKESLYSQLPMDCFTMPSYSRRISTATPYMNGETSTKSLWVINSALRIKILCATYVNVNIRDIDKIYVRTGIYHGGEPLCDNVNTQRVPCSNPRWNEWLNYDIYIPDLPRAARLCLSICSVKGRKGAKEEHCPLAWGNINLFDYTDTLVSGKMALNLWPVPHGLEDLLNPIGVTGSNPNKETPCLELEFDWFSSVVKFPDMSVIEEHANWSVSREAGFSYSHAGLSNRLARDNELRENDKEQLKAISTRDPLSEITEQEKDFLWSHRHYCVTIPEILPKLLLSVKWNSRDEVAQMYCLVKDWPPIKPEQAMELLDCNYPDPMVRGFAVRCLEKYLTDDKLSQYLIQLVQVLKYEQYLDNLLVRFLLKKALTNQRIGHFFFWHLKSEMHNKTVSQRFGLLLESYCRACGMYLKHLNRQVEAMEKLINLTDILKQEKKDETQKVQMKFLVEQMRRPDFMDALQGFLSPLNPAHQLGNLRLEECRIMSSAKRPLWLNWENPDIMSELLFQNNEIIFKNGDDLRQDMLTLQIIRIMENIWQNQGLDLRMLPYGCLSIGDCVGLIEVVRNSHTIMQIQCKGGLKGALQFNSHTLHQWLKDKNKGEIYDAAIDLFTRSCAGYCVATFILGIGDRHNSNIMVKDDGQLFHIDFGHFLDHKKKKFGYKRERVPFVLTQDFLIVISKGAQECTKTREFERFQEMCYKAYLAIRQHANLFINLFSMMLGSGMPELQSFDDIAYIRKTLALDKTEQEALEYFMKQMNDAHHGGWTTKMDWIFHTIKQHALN
Sequence of Cytochrome P450 2C9 (P11712 whole entry): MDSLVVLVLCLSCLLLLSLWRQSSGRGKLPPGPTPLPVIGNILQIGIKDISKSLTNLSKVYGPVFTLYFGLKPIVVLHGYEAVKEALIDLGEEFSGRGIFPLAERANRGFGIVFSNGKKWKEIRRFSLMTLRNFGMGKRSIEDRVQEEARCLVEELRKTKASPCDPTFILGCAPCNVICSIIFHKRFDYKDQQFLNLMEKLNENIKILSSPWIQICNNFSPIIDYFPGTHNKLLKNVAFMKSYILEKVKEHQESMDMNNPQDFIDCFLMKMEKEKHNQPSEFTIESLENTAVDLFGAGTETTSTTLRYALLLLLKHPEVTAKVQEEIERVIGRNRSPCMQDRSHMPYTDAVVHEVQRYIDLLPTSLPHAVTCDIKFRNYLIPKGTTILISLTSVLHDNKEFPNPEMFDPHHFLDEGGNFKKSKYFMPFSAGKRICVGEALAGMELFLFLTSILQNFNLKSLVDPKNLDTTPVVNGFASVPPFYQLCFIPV
Sequence of Voltage-gated inwardly rectifying potassium channel KCNH2 (Q12809 whole entry): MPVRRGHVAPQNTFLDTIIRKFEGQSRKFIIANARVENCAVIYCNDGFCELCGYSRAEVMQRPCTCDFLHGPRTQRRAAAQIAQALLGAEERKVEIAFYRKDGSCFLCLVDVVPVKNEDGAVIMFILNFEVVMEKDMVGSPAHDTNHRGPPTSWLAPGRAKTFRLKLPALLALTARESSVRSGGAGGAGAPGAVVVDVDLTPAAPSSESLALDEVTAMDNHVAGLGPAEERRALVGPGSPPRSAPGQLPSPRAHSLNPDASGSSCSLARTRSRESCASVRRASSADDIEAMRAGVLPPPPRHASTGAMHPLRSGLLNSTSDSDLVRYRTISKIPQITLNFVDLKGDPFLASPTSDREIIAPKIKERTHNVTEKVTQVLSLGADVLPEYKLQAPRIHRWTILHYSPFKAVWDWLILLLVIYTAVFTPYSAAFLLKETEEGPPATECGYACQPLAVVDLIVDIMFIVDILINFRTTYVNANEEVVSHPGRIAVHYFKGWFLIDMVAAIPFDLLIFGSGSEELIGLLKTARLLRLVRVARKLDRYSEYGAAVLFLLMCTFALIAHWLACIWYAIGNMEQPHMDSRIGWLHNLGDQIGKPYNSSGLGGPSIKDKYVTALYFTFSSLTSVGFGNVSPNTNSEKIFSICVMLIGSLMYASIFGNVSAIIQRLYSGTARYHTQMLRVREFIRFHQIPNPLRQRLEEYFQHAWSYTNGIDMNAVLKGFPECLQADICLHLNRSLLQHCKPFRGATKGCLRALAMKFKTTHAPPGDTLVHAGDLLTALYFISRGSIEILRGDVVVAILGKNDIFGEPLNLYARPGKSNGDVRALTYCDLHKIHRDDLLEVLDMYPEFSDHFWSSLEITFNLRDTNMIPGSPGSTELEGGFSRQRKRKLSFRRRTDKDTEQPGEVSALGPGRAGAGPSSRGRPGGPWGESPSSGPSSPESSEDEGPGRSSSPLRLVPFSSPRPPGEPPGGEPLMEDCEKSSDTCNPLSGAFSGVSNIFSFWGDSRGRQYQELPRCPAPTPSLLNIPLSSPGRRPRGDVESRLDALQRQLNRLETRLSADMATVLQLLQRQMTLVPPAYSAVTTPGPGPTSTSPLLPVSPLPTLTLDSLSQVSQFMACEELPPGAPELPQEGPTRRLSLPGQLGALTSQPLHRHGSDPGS
Sequence of Cytochrome P450 3A4 (P08684 whole entry, canonical isoform): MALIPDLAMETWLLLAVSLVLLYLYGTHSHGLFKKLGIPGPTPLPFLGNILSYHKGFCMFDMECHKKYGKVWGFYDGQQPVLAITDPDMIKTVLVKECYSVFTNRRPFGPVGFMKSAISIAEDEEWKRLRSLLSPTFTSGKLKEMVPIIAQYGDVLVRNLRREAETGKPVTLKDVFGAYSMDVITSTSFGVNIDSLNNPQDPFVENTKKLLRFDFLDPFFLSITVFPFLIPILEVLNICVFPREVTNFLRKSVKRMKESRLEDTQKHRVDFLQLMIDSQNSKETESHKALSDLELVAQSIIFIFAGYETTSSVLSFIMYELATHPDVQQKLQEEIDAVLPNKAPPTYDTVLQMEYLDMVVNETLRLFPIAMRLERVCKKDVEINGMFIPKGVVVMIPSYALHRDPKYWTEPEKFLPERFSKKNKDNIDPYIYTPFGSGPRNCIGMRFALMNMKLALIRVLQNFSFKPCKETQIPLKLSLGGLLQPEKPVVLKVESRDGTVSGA
Sequence of Phosphatidylinositol 4,5-bisphosphate 3-kinase catalytic subunit beta isoform (P42338 whole entry, canonical isoform): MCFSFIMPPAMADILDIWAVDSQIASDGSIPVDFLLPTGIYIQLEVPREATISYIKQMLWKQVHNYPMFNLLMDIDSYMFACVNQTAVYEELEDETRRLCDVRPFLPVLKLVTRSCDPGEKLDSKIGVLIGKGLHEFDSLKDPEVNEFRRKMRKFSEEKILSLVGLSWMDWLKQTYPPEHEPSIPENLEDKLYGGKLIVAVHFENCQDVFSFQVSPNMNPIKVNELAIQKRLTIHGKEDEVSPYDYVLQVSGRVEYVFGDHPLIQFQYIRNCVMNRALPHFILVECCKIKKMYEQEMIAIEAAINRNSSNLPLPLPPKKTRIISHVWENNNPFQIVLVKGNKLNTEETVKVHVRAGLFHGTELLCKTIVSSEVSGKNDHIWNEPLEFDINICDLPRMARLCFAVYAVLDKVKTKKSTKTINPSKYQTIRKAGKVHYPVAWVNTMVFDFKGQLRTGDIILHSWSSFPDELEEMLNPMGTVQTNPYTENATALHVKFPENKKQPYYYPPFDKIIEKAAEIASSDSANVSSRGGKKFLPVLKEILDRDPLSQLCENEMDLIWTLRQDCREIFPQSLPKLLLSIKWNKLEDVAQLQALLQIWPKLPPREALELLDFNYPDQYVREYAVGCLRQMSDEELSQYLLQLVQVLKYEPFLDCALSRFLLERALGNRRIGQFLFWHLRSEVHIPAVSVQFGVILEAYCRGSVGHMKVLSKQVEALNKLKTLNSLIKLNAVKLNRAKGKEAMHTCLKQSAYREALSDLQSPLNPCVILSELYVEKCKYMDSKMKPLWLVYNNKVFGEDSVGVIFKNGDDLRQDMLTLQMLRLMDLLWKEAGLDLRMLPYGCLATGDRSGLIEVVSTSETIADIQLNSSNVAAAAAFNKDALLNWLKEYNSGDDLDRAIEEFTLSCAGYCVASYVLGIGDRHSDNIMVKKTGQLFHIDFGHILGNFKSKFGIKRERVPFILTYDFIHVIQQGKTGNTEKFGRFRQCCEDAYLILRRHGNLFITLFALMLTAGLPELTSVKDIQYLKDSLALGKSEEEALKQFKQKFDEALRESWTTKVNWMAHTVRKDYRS

- IC50 [2]: 1.1 nM
- inhibition (INH) [3]: Not Active
- inhibition (INH) [4]: Not Active
- Vd [5]: 0.32 L/kg
- inhibition (INH) [6]: Not Active
- IC50 [8]: 2 nM
- Tmax [9]: 2.5 h
- Tmax [12]: 0.3 h
- inhibition (INH) [13]: Not Active
- IC50 [14]: > 20000 nM
- CL [15]: 26%
- CL [17]: 2%
- IC50 [18]: > 20000 nM
- bioavailability [19]: 79%
SMILES: CCOc1c([C@H](C)n2nc(C)c3c(N)ncnc32)cc(Cl)c(F)c1[C@@H]1CNC(=O)C1 [PARSACLISIB]
- inhibition [1]: Active
- Activity [7]: Non-Toxic
- inhibition [10]: Active
- IC50 [11]: 2.5 nM
- IC50 [16]: 75000 nM

Source: ChEMBL document CHEMBL4406913, “INCB050465 (Parsaclisib), a Novel Next-Generation Inhibitor of Phosphoinositide 3-Kinase Delta (PI3Kδ)” (ACS Med Chem Lett, 2019)
